{
  "source": "patent US9895466B2",
  "about": "“Liposomal drug delivery system for bone cements” (UNIVERSITY COLLEGE CARDIFF CONSULTANTS LIMITED, priority 2013, dated 2018)",
  "test_system": "Staphylococcus aureus (S. aureus)",
  "experiment": "Microbial growth and zones of inhibition on agar plates",
  "format": "cell-based",
  "settings": "24 hours at 37° C.",
  "description": "10 mm diameter by 2 mm thick cylindrical bone cement samples were prepared as previously described for Palacos R, Palacos R+G and Palacos R with 200 mg of L61 liposomal gentamicin sulphate. Tryptone soya agar (TSA) was prepared by dissolving 40 g of tryptone soy agar medium in one liter of distilled water. The solution was boiled for one minute then sterilized in an autoclave at 121° C. for 15 minutes. The solution was allowed to cool to 45-50° C. before being dispensed into petri dishes (9 cm diameter). The petri dishes were cooled to room temperature then stored at 8-15° C. until use. Staphylococcus aureus (S. aureus) was cultured in tryptic soy broth (TSB) for 18-24 hours at 37° C. A sterile cotton swab was used to spread the inoculum across the TSA petri dish. The petri dish was turned by 60° and the process was repeated to ensure complete surface coverage. A 10 ug gentamicin standard disc was placed on the petri dish as a control and pressure was applied to the top of the disc to ensure full surface contact. […] The petri dish was then incubated at 37° C. for 18-24 hours, after which, the zones of inhibition around the samples and gentamicin disc were measured. Images of the zones of inhibition were taken and measured using ImageJ software (National Institutes of Health, Maryland, USA). The zones of inhibition were measured as the radius of the zone minus the radius of the sample. […]",
  "data": [
    {"substance": "gentamicin sulphate", "values": [
      {"measurement": "Zone of inhibition against S. aureus", "result": "created a zone of inhibition"}
    ]}
  ]
}
